Experimental data reported in ChEMBL document CHEMBL3351447, “Design, synthesis and anticancer evaluation of tetrahydro-β-carboline-hydantoin hybrids” (Bioorg Med Chem Lett, 2014).
Activity calls are given as the source filed them. The calls are words filed in the database; no cut-off is given here.

Tests used:
HeLa = assay: Cytotoxicity against human HeLa cells after 72 hrs by MTT assay; assay type: functional, cell-based
[1] = Cytotoxicity against human ME180 cells after 72 hrs by MTT assay; assay type: functional, cell-based; details: ME-180, 72 h
[2] = Cytotoxicity against human PC3 cells after 72 hrs by MTT assay; assay type: functional, cell-based; details: PC-3, 72 h
MCF7 = assay: Cytotoxicity against human MCF7 cells after 72 hrs by MTT assay; assay type: functional, cell-based; details: MCF7, 72 h
A549 = assay: Cytotoxicity against human A549 cells after 72 hrs by MTT assay; assay type: functional, cell-based; details: A549, 72 h
[3] = Selectivity index, ratio of IC50 for human RWPE cells to IC50 for human PC3 cells; assay type: functional
PC-3 [4] = assay: Induction of apoptosis in human PC3 cells assessed as early apoptotic cells at 6 uM after 48 hrs by orange/ethidium bromide staining based fluorescence microscopy; assay type: functional
PC-3 [5] = assay: Induction of apoptosis in human PC3 cells assessed as early apoptotic cells at 1 uM after 48 hrs by orange/ethidium bromide staining based fluorescence microscopy; assay type: functional
PC-3 [6] = assay: Induction of cell cycle arrest in human PC3 cells assessed as accumulation at G2/M phase at 3 and 6 uM after 48 hrs by propidium iodide staining based flow cytometry; assay type: functional
PC-3 [7] = assay: Induction of apoptosis in human PC3 cells assessed as early apoptotic cells at 3 uM after 48 hrs by orange/ethidium bromide staining based fluorescence microscopy; assay type: functional
PC-3 [8] = assay: Induction of apoptosis in human PC3 cells assessed as induction of membrane blebbing at 3 and 6 uM after 48 hrs by orange/ethidium bromide staining based fluorescence microscopy; assay type: functional, cell-based
PC-3 [9] = assay: Induction of cell cycle arrest in human PC3 cells assessed as accumulation at G2/M phase at 6 uM after 48 hrs by propidium iodide staining based flow cytometry (reference value: 20.9%); assay type: functional
PC-3 [10] = assay: Induction of cell cycle arrest in human PC3 cells assessed as accumulation at G0/G1 phase at 3 uM after 48 hrs by propidium iodide staining based flow cytometry (reference value: 55%); assay type: functional
PC-3 [11] = assay: Induction of cell cycle arrest in human PC3 cells assessed as accumulation at G0/G1 phase at 6 uM after 48 hrs by propidium iodide staining based flow cytometry (reference value: 55%); assay type: functional
PC-3 [12] = assay: Induction of cell cycle arrest in human PC3 cells assessed as accumulation at S phase at 3 uM after 48 hrs by propidium iodide staining based flow cytometry (reference value: 15.8%); assay type: functional
PC-3 [13] = assay: Induction of apoptosis in human PC3 cells assessed as induction of chromatin condensation with destructive fragmentation of the nucleus at 3 and 6 uM after 48 hrs by orange/ethidium bromide staining based fluorescence microscopy; assay type: functional, cell-based
PC-3 [14] = assay: Induction of apoptosis in human PC3 cells assessed as induction of apoptotic body formation at 3 and 6 uM after 48 hrs by orange/ethidium bromide staining based fluorescence microscopy; assay type: functional, cell-based
PC-3 [15] = assay: Induction of apoptosis in human PC3 cells assessed as induction of cell shrinkage at 3 and 6 uM after 48 hrs by orange/ethidium bromide staining based fluorescence microscopy; assay type: functional
PC-3 [16] = assay: Induction of cell cycle arrest in human PC3 cells assessed as accumulation at G2/M phase at 3 uM after 48 hrs by propidium iodide staining based flow cytometry (reference value: 20.9%); assay type: functional
PC-3 [17] = assay: Induction of cell cycle arrest in human PC3 cells assessed as accumulation at S phase at 6 uM after 48 hrs by propidium iodide staining based flow cytometry (reference value: 15.8%); assay type: functional

| Compound | IC50 (HeLa) | IC50 [1] | IC50 [2] | IC50 (MCF7) | IC50 (A549) | further results |
| --- | --- | --- | --- | --- | --- | --- |
| O=C1[C@@H]2Cc3c([nH]c4ccccc34)[C@@H](c3cccc(O)c3)N2C(=O)N1c1cccc(C(F)(F)F)c1 | 31.9 µM | > 100 µM | 37.1 µM | 70.9 µM | > 100 µM | – |
| O=C1[C@H]2Cc3c([nH]c4ccccc34)[C@@H](c3cccc(O)c3)N2C(=O)N1Cc1ccc(Br)cc1 | 11.2 µM | 17.5 µM | 9.13 µM | 27.9 µM | 35.4 µM | Ratio IC50 [3]: 1.7 |
| COc1cccc2c1C(=O)c1c(O)c3c(c(O)c1C2=O)C[C@@](O)(C(=O)CO)C[C@@H]3O[C@H]1C[C@H](N)[C@H](O)[C@H](C)O1 [DOXORUBICIN] | – | 0.39 µM | – | – | – | – |
| COc1cc([C@@H]2c3[nH]c4ccccc4c3C[C@@H]3C(=O)N(CCCl)C(=O)N23)ccc1O | 33.1 µM | > 100 µM | 29.1 µM | > 100 µM | > 100 µM | – |
| O=C1[C@H]2Cc3c([nH]c4ccccc34)[C@@H](c3cccc(O)c3)N2C(=O)N1c1ccc(Cl)cc1 | 12.1 µM | 17 µM | 10.3 µM | 40.5 µM | 34.8 µM | – |
| COc1cc([C@@H]2c3[nH]c4ccccc4c3C[C@@H]3C(=O)N(Cc4ccc(Br)cc4)C(=O)N23)ccc1O | 84.3 µM | > 100 µM | 12 µM | 19.9 µM | > 100 µM | – |
| O=C1[C@H]2Cc3c([nH]c4ccccc34)[C@@H](c3cccc(O)c3)N2C(=O)N1CCCl | 30.3 µM | 48 µM | 22.3 µM | > 100 µM | > 100 µM | – |
| COc1cc([C@@H]2c3[nH]c4ccccc4c3C[C@H]3C(=O)N(c4cccc(C(F)(F)F)c4)C(=O)N23)ccc1O | 11.4 µM | 27.4 µM | 9.6 µM | 48 µM | > 100 µM | Ratio IC50 [3]: 1.6 |
| COc1cc([C@@H]2c3[nH]c4ccccc4c3C[C@H]3C(=O)N(CCCl)C(=O)N23)ccc1O | 50 µM | > 100 µM | 35.5 µM | 50.7 µM | > 100 µM | – |
| COc1cc([C@@H]2c3[nH]c4ccccc4c3C[C@@H]3C(=O)N(c4ccc(Cl)cc4)C(=O)N23)ccc1O | 30.6 µM | > 100 µM | 13.4 µM | 19.7 µM | > 100 µM | – |
| COc1cc([C@@H]2c3[nH]c4ccccc4c3C[C@@H]3C(=O)N(c4cccc(C(F)(F)F)c4)C(=O)N23)ccc1O | 15.6 µM | 30.7 µM | 11.7 µM | 35.9 µM | 43.9 µM | – |
| COc1cc([C@@H]2c3[nH]c4ccccc4c3C[C@H]3C(=O)N(c4ccc(Cl)cc4)C(=O)N23)ccc1O | 30.3 µM | > 100 µM | 13.4 µM | 42.2 µM | > 100 µM | – |
| O=C1[C@@H]2Cc3c([nH]c4ccccc34)[C@@H](c3cccc(O)c3)N2C(=O)N1c1ccc(Cl)cc1 | 6.5 µM | 24.6 µM | 6.08 µM | 26 µM | 16 µM | Activity (PC-3 [4]): 42.5%; Activity (PC-3 [5]): 8%; fold change (FC) (PC-3 [6]): 1.63; Activity (PC-3 [7]): 25%; Activity (PC-3 [8]): Active; Activity (PC-3 [9]): 34.1%; Activity (PC-3 [10]): 43.9%; Activity (PC-3 [11]): 45.5%; Activity (PC-3 [12]): 15.8%; Activity (PC-3 [13]): Active; Activity (PC-3 [14]): Active; Activity (PC-3 [15]): Active; Ratio IC50 [3]: 5; Activity (PC-3 [16]): 31.5%; Activity (PC-3 [17]): 11.8% |
| O=C1[C@@H]2Cc3c([nH]c4ccccc34)[C@@H](c3cccc(O)c3)N2C(=O)N1Cc1ccc(Br)cc1 | 24.3 µM | 88.6 µM | 8.9 µM | 24.9 µM | 34.8 µM | Ratio IC50 [3]: 1.9 |
| O=C1[C@@H]2Cc3c([nH]c4ccccc34)[C@@H](c3cccc(O)c3)N2C(=O)N1CCCl | 60.3 µM | 59.5 µM | 49 µM | 48.2 µM | 68 µM | – |
| O=C1[C@H]2Cc3c([nH]c4ccccc34)[C@@H](c3cccc(O)c3)N2C(=O)N1c1cccc(C(F)(F)F)c1 | 13.6 µM | 22.6 µM | 11.2 µM | 42.6 µM | 40 µM | – |
| COc1cc([C@@H]2c3[nH]c4ccccc4c3C[C@H]3C(=O)N(Cc4ccc(Br)cc4)C(=O)N23)ccc1O | 82.9 µM | > 100 µM | > 100 µM | > 100 µM | 77.5 µM | – |
| COc1cc([C@@H]2c3cc4c(cc3[C@@H](O[C@@H]3O[C@@H]5CO[C@@H](C)O[C@H]5[C@H](O)[C@H]3O)[C@H]3COC(=O)[C@H]23)OCO4)cc(OC)c1O [ETOPOSIDE] | 4.71 µM | 8.9 µM | 14.4 µM | – | 50 µM | Ratio IC50 [3]: 2 |
